Like-named read-outs stand apart in the source and are kept apart here.
Experiments:
SF-268 = experiment: NCI 60 cell line panel screen (SRB); format: cell-based, human
M14 = experiment: NCI 60 cell line panel screen (SRB); format: cell-based, human; details: for Log10LC50: M14 (Melanoma), LC50: PG=−50; for Log10TGI50: M-14 (Melanoma), TGI: PG=0; for Log10GI50: Melanoma, M14
HCT-116 = experiment: NCI 60 cell line panel screen (SRB); format: cell-based, human; details: for Log10GI50: Colon Cancer, HCT-116; for Log10LC50 / Log10TGI50: HCT-116 (Colon Cancer); for Log10LC50: LC50: PG=−50; for Log10TGI50: TGI: PG=0
MDA-MB-435 = experiment: NCI 60 cell line panel screen (SRB); format: cell-based, human; details: for Log10GI50: Breast Cancer, MDA-MB-435
OVCAR-3 = experiment: NCI 60 cell line panel screen (SRB); format: cell-based, human; details: for Log10LC50 / Log10TGI50: OVCAR-3 (Ovarian Cancer); for Log10LC50: LC50: PG=−50; for Log10TGI50: TGI: PG=0; for Log10GI50: Ovarian Cancer, OVCAR-3
A549/ATCC = experiment: NCI 60 cell line panel screen (SRB); format: cell-based, human
NCI-H322M = format: cell-based; details: for Log10LC50 / Log10TGI50: NCI-H322M (Non-Small Cell Lung Cancer); for Log10LC50: LC50: PG=−50; for Log10TGI50: TGI: PG=0; for Log10GI50: Non-Small Cell Lung Cancer, NCI-H322M
ACHN = experiment: NCI 60 cell line panel screen (SRB); format: cell-based, human; details: for Log10LC50 / Log10TGI50: ACHN (Renal Cancer); for Log10LC50: LC50: PG=−50; for Log10TGI50: TGI: PG=0
UO-31 = experiment: NCI 60 cell line panel screen (SRB); format: cell-based, human; details: for Log10GI50: Renal Cancer, UO-31
PC-3 = experiment: NCI 60 cell line panel screen (SRB); format: cell-based, human; details: for Log10LC50 / Log10TGI50: PC-3 (Prostate Cancer); for Log10LC50: LC50: PG=−50; for Log10TGI50: TGI: PG=0; for Log10GI50: Prostate Cancer, PC-3
60 cell line panel = format: cell-based; details: for Log10LC50 Delta / Log10LC50 Range / Log10TGI50 Delta / Log10TGI50 Range: 60 cell line panel
[1] = test system: chloroquine-sensitive P. falciparum (NF54); experiment: Antimalarial activity in vitro, [3H]hypoxanthine incorporation; format: cell-based
MDA-MB231/ATCC = experiment: NCI 60 cell line panel screen (SRB); format: cell-based, human; details: for Log10GI50: Breast Cancer, MDA-MB231/ATCC; for Log10TGI50: TGI: PG=0
MCF7 = experiment: NCI 60 cell line panel screen (SRB); format: cell-based, human; details: for Log10GI50: Breast Cancer, MCF7; for Log10LC50: LC50: PG=−50
NCI-H522 = experiment: NCI 60 cell line panel screen (SRB); format: cell-based, human; details: for Log10TGI50: NCI-H522 (Non-Small Cell Lung Cancer), TGI: PG=0; for Log10LC50: NCI-H-522 (Non-Small Cell Lung Cancer), LC50: PG=−50
IGROVI = experiment: NCI 60 cell line panel screen (SRB); format: cell-based, human; details: for Log10LC50 / Log10TGI50: IGROVI (Ovarian Cancer); for Log10LC50: LC50: PG=−50; for Log10TGI50: TGI: PG=0; for Log10GI50: Ovarian Cancer, IGROVI
MALME-3M = experiment: NCI 60 cell line panel screen (SRB); format: cell-based, human; details: for Log10LC50 / Log10TGI50: MALME-3M (Melanoma); for Log10LC50: LC50: PG=−50; for Log10TGI50: TGI: PG=0
BT-549 = experiment: NCI 60 cell line panel screen (SRB); format: cell-based, human; details: for Log10LC50 / Log10TGI50: BT-549 (Breast Cancer); for Log10LC50: LC50: PG=−50; for Log10TGI50: TGI: PG=0; for Log10GI50: Breast Cancer, BT-549
HCT-15 = experiment: NCI 60 cell line panel screen (SRB); format: cell-based, human; details: for Log10GI50: Colon Cancer, HCT-15; for Log10LC50 / Log10TGI50: HCT-15 (Colon Cancer); for Log10LC50: LC50: PG=−50; for Log10TGI50: TGI: PG=0
NCI/ADR-RES = experiment: NCI 60 cell line panel screen (SRB); format: cell-based, human; details: for Log10GI50: Breast Cancer, NCI/ADR-RES; for Log10LC50 / Log10TGI50: NCI/ADR-RES (Breast Cancer); for Log10LC50: LC50: PG=−50; for Log10TGI50: TGI: PG=0
HT29 = experiment: NCI 60 cell line panel screen (SRB); format: cell-based, human
[2] = mean value over the 60 cell line panel

## CC1CCC2C(C)C(CC(COC(=O)c3cc[n+]([O-])cc3)CC3OC4OC5(C)CCC6C(C)CCC(C3C)C46OO5)OC3OC4(C)CCC1C32OO4 (stereo not shown) [Compound 13, bis-trioxane primary alcohol isonicotinate N-oxide]
SF-268; CNS Cancer, SF-268
  Log10GI50: −5.29
SF-268; SF-268 (CNS Cancer), LC50: PG=−50
  Log10LC50: −4.31 log10M
SF-268; SF-268 (CNS Cancer), TGI: PG=0
  Log10TGI50: −4.80 log10M
M14
  Log10LC50: >−4.30 log10M
  Log10TGI50: −4.75 log10M
  Log10GI50: −5.81
HCT-116
  Log10GI50: <−8.30
  Log10LC50: >−4.30 log10M
  Log10TGI50: −5.06 log10M
MDA-MB-435
  Log10GI50: −7.62
MDA-MB-435; MDA-MB-435 (Breast Cancer), LC50: PG=−50
  Log10LC50: −4.46 log10M
MDA-MB-435; MDA-MB-435 (Breast Cancer), TGI: PG=0
  Log10TGI50: −4.94 log10M
OVCAR-3
  Log10LC50: −4.51 log10M
  Log10TGI50: −4.98 log10M
  Log10GI50: −7.75
A549/ATCC; A549/ATCC (Non-Small Cell Lung Cancer), LC50: PG=−50
  Log10LC50: >−4.30 log10M
A549/ATCC; A549/ATCC (Non-Small Cell Lung Cancer), TGI: PG=0
  Log10TGI50: −4.61 log10M
A549/ATCC; Non-Small Cell Lung Cancer, A549/ATCC
  Log10GI50: −5.98
NCI-H322M
  Log10LC50: −4.59 log10M
  Log10TGI50: −5.06 log10M
  Log10GI50: −6.26
ACHN
  Log10LC50: −4.79 log10M
  Log10TGI50: −6.57 log10M
ACHN; Renal Cancer, ACHN
  Log10GI50: <−8.30
UO-31
  Log10GI50: <−8.30
UO-31; UO-31 (Renal Cancer), LC50: PG=−50
  Log10LC50: >−4.30 log10M
UO-31; UO-31 (Renal Cancer), TGI: PG=0
  Log10TGI50: −5.10 log10M
PC-3
  Log10LC50: −4.63 log10M
  Log10TGI50: −5.11 log10M
  Log10GI50: <−8.30
60 cell line panel
  Log10GI50 Delta: 0.92
  Log10GI50 Range: 3.22
  Log10LC50 Delta: 1.27
  Log10LC50 Range: 1.49
  Log10TGI50 Delta: 3.15
  Log10TGI50 Range: 4.00
60 cell line panel; mean over panel
  Log10GI50 MG MID: −7.38
60 cell line panel; [2]
  Log10LC50 MG MID: −4.51 log10M
  Log10TGI50 MG MID: −5.15 log10M
[1]
  IC50: sub-nanomolar
[1]; Table I, NF54 strain, read-out: IC50
  IC50: 0.53 nM
MDA-MB231/ATCC
  Log10GI50: −7.64
MDA-MB231/ATCC; MDA-MB231/ATCC (Breast Cancer), LC50: PG=−50
  Log10LC50: −4.77 log10M
MDA-MB231/ATCC; MDA-MB231/ATCC (Breast Cancer)
  Log10TGI50: −6.32 log10M
MCF7
  Log10GI50: <−8.30
MCF7; MCF7 (Breast Cancer)
  Log10LC50: −4.44 log10M
MCF7; MCF7 (Breast Cancer), TGI: PG=0
  Log10TGI50: −5.03 log10M
NCI-H522
  Log10TGI50: −4.60 log10M
  Log10LC50: >−4.30 log10M
IGROVI
  Log10LC50: >−4.30 log10M
  Log10TGI50: >−4.30 log10M
  Log10GI50: −5.36
MALME-3M
  Log10LC50: −4.66 log10M
  Log10TGI50: <−8.30 log10M
MALME-3M; Melanoma, MALME-3M
  Log10GI50: <−8.30
BT-549
  Log10LC50: −4.61 log10M
  Log10TGI50: −5.07 log10M
  Log10GI50: <−8.30
HCT-15
  Log10GI50: <−8.30
  Log10LC50: −4.81 log10M
  Log10TGI50: −8.19 log10M
NCI/ADR-RES
  Log10GI50: −7.60
  Log10LC50: −4.65 log10M
  Log10TGI50: −5.18 log10M

## CC(=O)O[C@H]1C(=O)[C@@]2(C)[C@H]([C@H](OC(=O)c3ccccc3)[C@]3(O)C[C@H](OC(=O)[C@H](O)[C@@H](NC(=O)c4ccccc4)c4ccccc4)C(C)=C1C3(C)C)[C@]1(OC(C)=O)CO[C@@H]1C[C@@H]2O [Paclitaxel, paclitaxel, reference compound]
M14
  Log10LC50: −4.13 log10M
  Log10TGI50: −4.62 log10M
  Log10GI50: −11.73
HCT-116
  Log10GI50: <−13.00
  Log10LC50: >−4.00 log10M
  Log10TGI50: −4.82 log10M
MDA-MB-435
  Log10GI50: <−13.00
OVCAR-3
  Log10LC50: >−4.00 log10M
  Log10TGI50: −4.55 log10M
  Log10GI50: −10.40
HT29; Colon Cancer, HT29
  Log10GI50: <−13.00
HT29; HT29 (Colon Cancer), LC50: PG=−50
  Log10LC50: −4.39 log10M
NCI-H322M
  Log10LC50: >−4.00 log10M
  Log10TGI50: −4.46 log10M
  Log10GI50: −10.12
ACHN
  Log10LC50: −4.45 log10M
  Log10TGI50: −4.90 log10M
UO-31
  Log10GI50: −6.09
PC-3
  Log10LC50: >−4.00 log10M
  Log10TGI50: >−4.00 log10M
  Log10GI50: −10.85
60 cell line panel
  Log10GI50 Delta: −10.15
  Log10GI50 Range: 8.00
  Log10LC50 Delta: −4.06
  Log10LC50 Range: .045
  Log10TGI50 Delta: −4.54
  Log10TGI50 Range: 7.20
MDA-MB231/ATCC
  Log10GI50: −8.54
MDA-MB231/ATCC; MDA-MB231/ATCC (Breast Cancer)
  Log10TGI50: −4.84 log10M
MCF7
  Log10GI50: −11.69
MCF7; MCF7 (Breast Cancer)
  Log10LC50: >−4.00 log10M
NCI-H522
  Log10TGI50: −11.20 log10M
  Log10LC50: >−4.00 log10M
NCI-H522; Non-Small Cell Lung Cancer, NCI-H522
  Log10GI50: <−13.00
IGROVI
  Log10LC50: >−4.00 log10M
  Log10TGI50: −4.19 log10M
  Log10GI50: −8.61
MALME-3M
  Log10LC50: −4.11 log10M
  Log10TGI50: −4.46 log10M
BT-549
  Log10LC50: >−4.00 log10M
  Log10TGI50: −6.32 log10M
  Log10GI50: −9.31
HCT-15
  Log10GI50: −6.37
  Log10LC50: >−4.00 log10M
  Log10TGI50: >−4.00 log10M
NCI/ADR-RES
  Log10GI50: −8.48
  Log10LC50: >−4.00 log10M
  Log10TGI50: >−4.00 log10M
